Converted amounts (≈) assume the structure as drawn.
Legend:
[1] = system: PGE2 production in mouse macrophage cell line Raw264.7; test: Inhibition of LPS-induced PGE2 production in macrophages (ELISA); format: cell-based; settings: Raw264.7, extract 1 hour before LPS, LPS 16 hours, read-out: IC50 for inhibition of PEG2 production
Description: The effect of the inventive water or organic solvent extract of Anemarrhena asphodeloides and Aralia elata on the production of PGE2 (prostaglandin E2) in mouse macrophages was examined to measure a concentration at which a 50% inhibitory effect is shown. The PGE2 is a substance synthesized by a COX-2 enzyme in macrophages permeated skin when infected with foreign substances or germs, and the degree of inflammation and the secreted amount of PGE2 are closely connected with each other. Namely, as inflammation becomes more severe, the secretion of PGE2 increases.
Meanwhile, when mouse macrophage cell line Raw264.7 (obtained from Korean Cell Line Bank) is cultured in RPMI medium while it is treated with LPS (lipopolysaccharide) for 16 hours, the production of PGE2 will increase. Thus, 1 hour before the macrophage cell line was treated with LPS, the macrophage cell line was treated with each of the water extract of Anemarrhena asphodeloides or water extract of Aralia elata prepared in Example 1, the water extract of Anemarrhena asphodeloides and Aralia elata prepared in Example 2 and the ethanol extract of Anemarrhena asphodeloides and Aralia elata prepared in Example 3, at varying concentrations of 5 mg/ml, 1 mg/ml, 500 μg/ml, 100 μg/ml, 50 μg/ml and 10 μg/ml, and then measured for the amount of PEG2 produced. […]

[2] = system: Propionibacterium acnes (KCTC 3314); test: Minimum inhibitory concentration in BHI broth, anaerobic culture, O.D. 660 nm; format: cell-based; settings: 37° C., 48-72 hours
Experimental: To measure the antibacterial effect of the inventive extract against Propionibacterium acnes, […] of BHI (brain heart infusion) broth was inoculated with a culture of Propionibacterium acnes (KCTC 3314) at a concentration of 1% (v/v). Then, the inoculated broth was treated with each of the water extract of Anemarrhena asphodeloides or water extract of Aralia elata prepared in Example 1, the water extract of Anemarrhena asphodeloides and Aralia elata prepared in Example 2 and the ethanol extract of Anemarrhena asphodeloides and Aralia elata prepared in Example 3 at varying concentrations of 0.1%, 1%, 5%, 10% and 20%. A negative control group was treated with physiological saline. […] As positive control groups, erythromycin and triclosan, which are known to have antiacne effect, were used.

Row | Structure (SMILES) | IC50 [1] [µg/mL] | MIC [2]
1 | CC(=O)Oc1ccccc1C(=O)O [aspirin] | 48 (≈ 266 µM) | 
2 | CC[C@H]1OC(=O)[C@H](C)[C@@H](O[C@H]2C[C@@](C)(OC)[C@@H](O)[C@H](C)O2)[C@H](C)[C@@H](O[C@@H]2O[C@H](C)C[C@H](N(C)C)[C@H]2O)[C@](C)(O)C[C@@H](C)C(=O)[C@H](C)[C@@H](O)[C@]1(C)O [erythromycin] |  | 0.0005 ppm, v/v
3 | Oc1cc(Cl)ccc1Oc1ccc(Cl)cc1Cl [triclosan] |  | 0.001 ppm, v/v

— patent publication US20080085333A1, “Composition Comprising Extract of Anemarrhena Asphodeloides and Aralia Elata,and Use Thereof” (MEDVILL CO., LTD., priority 2004, published 2008)
